Source: the supplement of paper PMC11451515

Experiments:
Conditions in all cases: 48 h
P12-Ichikawa [1] = test: AUC of viability dose-response curve (% viability x log10 dose units); higher = less sensitive
How it was run: (§1)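 Leukemia cells adapted to each medium (500 or 1000 cells/well, 1536-well plates) were exposed to library compounds in DMSO for 48 h at 37°C at 11 threefold doses, 47 μM to 0.79 nM. Luminescence by CellTiter-Glo One was normalised per plate to DMSO and cell-free wells, then fitted with a four-parameter log-logistic curve on log10 dose. Curves above full viability were scaled and quality-control failures removed before area under the curve was integrated by trapezoidal rule.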

SEM cells [2] = test: as above
How it was run: as §1

NOMO1 [3] = test: as above
How it was run: as §1

P12-Ichikawa [4] = test: cell viability relative to DMSO control; higher = less cytotoxic
How it was run: (§2)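 Library compounds in DMSO were pin-dosed into 1536-well plates (5 μl) holding NOMO1 or SEM (500 cells/well) or P12-Ichikawa (1000 cells/well) leukemia cells, across an 11-point threefold series of 47 μM to 0.79 nM. Each cell line had been adapted for at least four passages in each medium. CellTiter-Glo One luminescence was read after 48 h at 37°C. Viability is the per-plate percentage relative to DMSO wells, with cell-free wells as background.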

SEM cells [5] = test: as above
How it was run: as §2

NOMO1 [6] = test: as above
How it was run: as §2

CN(C)C1=CC=C(C=C1)C(C2=CC=C(C=C2)N(C)C)=C/3\C=C/C(/C=C3)=[N+](C)C
AUC of viability dose-response curve
Conditions	NOMO1 [3]	P12-Ichikawa [1]	SEM cells [2]
HPLM + 10% dialyzed FBS	225	253	226
RPMI 5 mM glucose + 10% FBS	232	233	218
RPMI 5 mM glucose + 10% dialyzed FBS	234	240	211

cell viability [%]
Conditions	NOMO1 [6]	P12-Ichikawa [4]	SEM cells [5]
HPLM + 10% dialyzed FBS, 0.000781 µM	102	114	101
HPLM + 10% dialyzed FBS, 0.00234 µM	114	107	98.3
HPLM + 10% dialyzed FBS, 0.00702 µM	136	122	113
HPLM + 10% dialyzed FBS, 0.0211 µM	132	116	98.1
HPLM + 10% dialyzed FBS, 0.0632 µM	103	115	116
HPLM + 10% dialyzed FBS, 0.19 µM	26.6	74.1	9.97
HPLM + 10% dialyzed FBS, 0.569 µM	9.97	18.5	4.77
HPLM + 10% dialyzed FBS, 1.71 µM	4.17	1.52	4.38
HPLM + 10% dialyzed FBS, 5.12 µM	4.13	1.65	4.51
HPLM + 10% dialyzed FBS, 15.4 µM	1.55	1.9	1.71
HPLM + 10% dialyzed FBS, 46.1 µM	0.245	0.24	1.2
RPMI 5 mM glucose + 10% FBS, 0.000781 µM	113	107	–
RPMI 5 mM glucose + 10% FBS, 0.00234 µM	98.4	103	–
RPMI 5 mM glucose + 10% FBS, 0.00702 µM	101	102	–
RPMI 5 mM glucose + 10% FBS, 0.0211 µM	113	111	–
RPMI 5 mM glucose + 10% FBS, 0.0632 µM	107	94.9	–
RPMI 5 mM glucose + 10% FBS, 0.19 µM	27.2	24.6	–
RPMI 5 mM glucose + 10% FBS, 0.569 µM	6.73	14.9	–
RPMI 5 mM glucose + 10% FBS, 1.71 µM	2.46	3.64	–
RPMI 5 mM glucose + 10% FBS, 5.12 µM	2.87	6.36	–
RPMI 5 mM glucose + 10% FBS, 15.4 µM	0.606	4.49	–
RPMI 5 mM glucose + 10% FBS, 46.1 µM	-0.00921	0.553	–
RPMI 5 mM glucose + 10% dialyzed FBS, 0.000781 µM	112	110	104
RPMI 5 mM glucose + 10% dialyzed FBS, 0.00234 µM	101	104	113
RPMI 5 mM glucose + 10% dialyzed FBS, 0.00702 µM	110	115	100
RPMI 5 mM glucose + 10% dialyzed FBS, 0.0211 µM	100	106	85.9
RPMI 5 mM glucose + 10% dialyzed FBS, 0.0632 µM	96.9	94.1	76.1
RPMI 5 mM glucose + 10% dialyzed FBS, 0.19 µM	33.1	34.3	8.49
RPMI 5 mM glucose + 10% dialyzed FBS, 0.569 µM	11.3	19.2	4.28
RPMI 5 mM glucose + 10% dialyzed FBS, 1.71 µM	5.56	10.9	2.86
RPMI 5 mM glucose + 10% dialyzed FBS, 5.12 µM	5.09	12.8	4.04
RPMI 5 mM glucose + 10% dialyzed FBS, 15.4 µM	1.49	3.78	1.22
RPMI 5 mM glucose + 10% dialyzed FBS, 46.1 µM	0.371	0.17	0.974

FC(F)c1nc2ccccc2n1-c1nc(N2CCOCC2)nc(N2CCOCC2)n1
AUC of viability dose-response curve
Conditions	NOMO1 [3]	P12-Ichikawa [1]	SEM cells [2]
HPLM + 10% dialyzed FBS	260	413	325
RPMI 5 mM glucose + 10% FBS	329	367	351
RPMI 5 mM glucose + 10% dialyzed FBS	333	394	326

cell viability [%]
Conditions	NOMO1 [6]	P12-Ichikawa [4]	SEM cells [5]
HPLM + 10% dialyzed FBS, 0.000781 µM	104	98.2	85.1
HPLM + 10% dialyzed FBS, 0.00234 µM	93.8	108	79
HPLM + 10% dialyzed FBS, 0.00702 µM	92	107	83.6
HPLM + 10% dialyzed FBS, 0.0211 µM	60.1	104	85.9
HPLM + 10% dialyzed FBS, 0.0632 µM	65.3	101	73.8
HPLM + 10% dialyzed FBS, 0.19 µM	42.6	91.4	62.8
HPLM + 10% dialyzed FBS, 0.569 µM	43.9	85.4	61.3
HPLM + 10% dialyzed FBS, 1.71 µM	36.3	78.5	66.6
HPLM + 10% dialyzed FBS, 5.12 µM	41.5	83.8	49.7
HPLM + 10% dialyzed FBS, 15.4 µM	27.7	81.9	60
HPLM + 10% dialyzed FBS, 46.1 µM	30.6	59.1	38.7
RPMI 5 mM glucose + 10% FBS, 0.000781 µM	85.4	98	87.6
RPMI 5 mM glucose + 10% FBS, 0.00234 µM	92.2	104	80.7
RPMI 5 mM glucose + 10% FBS, 0.00702 µM	87.9	96	93.5
RPMI 5 mM glucose + 10% FBS, 0.0211 µM	94.5	85.4	84.4
RPMI 5 mM glucose + 10% FBS, 0.0632 µM	78	92.8	75.3
RPMI 5 mM glucose + 10% FBS, 0.19 µM	67.8	71	70.5
RPMI 5 mM glucose + 10% FBS, 0.569 µM	52.6	64.7	75.6
RPMI 5 mM glucose + 10% FBS, 1.71 µM	62.8	58.9	63.1
RPMI 5 mM glucose + 10% FBS, 5.12 µM	45.7	61.1	66
RPMI 5 mM glucose + 10% FBS, 15.4 µM	60.2	58.7	62.4
RPMI 5 mM glucose + 10% FBS, 46.1 µM	31.2	58	45.8
RPMI 5 mM glucose + 10% dialyzed FBS, 0.000781 µM	86.5	106	84.2
RPMI 5 mM glucose + 10% dialyzed FBS, 0.00234 µM	102	94.5	78.9
RPMI 5 mM glucose + 10% dialyzed FBS, 0.00702 µM	97.1	103	71.9
RPMI 5 mM glucose + 10% dialyzed FBS, 0.0211 µM	97.5	102	87.5
RPMI 5 mM glucose + 10% dialyzed FBS, 0.0632 µM	76.5	95.3	72.2
RPMI 5 mM glucose + 10% dialyzed FBS, 0.19 µM	71	92.6	68.7
RPMI 5 mM glucose + 10% dialyzed FBS, 0.569 µM	54.7	75.7	60.6
RPMI 5 mM glucose + 10% dialyzed FBS, 1.71 µM	52.9	54.4	63.1
RPMI 5 mM glucose + 10% dialyzed FBS, 5.12 µM	50.2	63.5	66
RPMI 5 mM glucose + 10% dialyzed FBS, 15.4 µM	43.9	64.8	54.3
RPMI 5 mM glucose + 10% dialyzed FBS, 46.1 µM	34.4	55.8	37.1

Cc1cnc(NC(=O)Nc2cc(Br)c(C)cc2OC[C@@H]2CNCCO2)cn1
AUC of viability dose-response curve
Conditions	NOMO1 [3]	P12-Ichikawa [1]	SEM cells [2]
HPLM + 10% dialyzed FBS	355	424	328
RPMI 5 mM glucose + 10% FBS	409	435	350
RPMI 5 mM glucose + 10% dialyzed FBS	365	393	326

cell viability [%]
Conditions	NOMO1 [6]	P12-Ichikawa [4]	SEM cells [5]
HPLM + 10% dialyzed FBS, 0.000781 µM	122	119	95
HPLM + 10% dialyzed FBS, 0.00234 µM	130	106	112
HPLM + 10% dialyzed FBS, 0.00702 µM	107	112	110
HPLM + 10% dialyzed FBS, 0.0211 µM	127	113	115
HPLM + 10% dialyzed FBS, 0.0632 µM	130	120	117
HPLM + 10% dialyzed FBS, 0.19 µM	120	106	107
HPLM + 10% dialyzed FBS, 0.569 µM	95.1	104	65.8
HPLM + 10% dialyzed FBS, 1.71 µM	69.5	100	31.8
HPLM + 10% dialyzed FBS, 5.12 µM	30.9	76.7	22.6
HPLM + 10% dialyzed FBS, 15.4 µM	35.5	93.8	24.4
HPLM + 10% dialyzed FBS, 46.1 µM	26.6	48.4	22.5
RPMI 5 mM glucose + 10% FBS, 0.000781 µM	108	108	103
RPMI 5 mM glucose + 10% FBS, 0.00234 µM	120	109	114
RPMI 5 mM glucose + 10% FBS, 0.00702 µM	107	105	78.6
RPMI 5 mM glucose + 10% FBS, 0.0211 µM	107	111	105
RPMI 5 mM glucose + 10% FBS, 0.0632 µM	119	118	109
RPMI 5 mM glucose + 10% FBS, 0.19 µM	117	115	110
RPMI 5 mM glucose + 10% FBS, 0.569 µM	101	111	91
RPMI 5 mM glucose + 10% FBS, 1.71 µM	99	99.1	33
RPMI 5 mM glucose + 10% FBS, 5.12 µM	51	67.9	27.5
RPMI 5 mM glucose + 10% FBS, 15.4 µM	94.2	99.5	33.8
RPMI 5 mM glucose + 10% FBS, 46.1 µM	22.5	34.3	17.5
RPMI 5 mM glucose + 10% dialyzed FBS, 0.000781 µM	111	114	108
RPMI 5 mM glucose + 10% dialyzed FBS, 0.00234 µM	106	120	101
RPMI 5 mM glucose + 10% dialyzed FBS, 0.00702 µM	109	118	95.2
RPMI 5 mM glucose + 10% dialyzed FBS, 0.0211 µM	116	121	106
RPMI 5 mM glucose + 10% dialyzed FBS, 0.0632 µM	121	121	100
RPMI 5 mM glucose + 10% dialyzed FBS, 0.19 µM	108	123	98.1
RPMI 5 mM glucose + 10% dialyzed FBS, 0.569 µM	110	110	66.8
RPMI 5 mM glucose + 10% dialyzed FBS, 1.71 µM	68.1	91	21.9
RPMI 5 mM glucose + 10% dialyzed FBS, 5.12 µM	23.1	53.2	19.7
RPMI 5 mM glucose + 10% dialyzed FBS, 15.4 µM	32.8	82.4	21.8
RPMI 5 mM glucose + 10% dialyzed FBS, 46.1 µM	17.9	23.9	17.2
